The source of these data is ChEMBL document CHEMBL5150077, “Identification of TUL01101: A Novel Potent and Selective JAK1 Inhibitor for the Treatment of Rheumatoid Arthritis” (J Med Chem, 2022).

Activity calls are given as the source filed them. The calls are words filed in the database; no cut-off is given here.

A short description of data set [1]: Metabolic stability in mouse hepatocytes assessed as intrinsic clearance at 1 uM incubated for 90 mins by LC/MS/MS analysis. The class given is ADME, cell-based, Hepatocyte.
In a further data set the target is T1, Cytochrome P450 1A2 (Homo sapiens, UniProt P05177).
T1 sequence (P05177 whole entry): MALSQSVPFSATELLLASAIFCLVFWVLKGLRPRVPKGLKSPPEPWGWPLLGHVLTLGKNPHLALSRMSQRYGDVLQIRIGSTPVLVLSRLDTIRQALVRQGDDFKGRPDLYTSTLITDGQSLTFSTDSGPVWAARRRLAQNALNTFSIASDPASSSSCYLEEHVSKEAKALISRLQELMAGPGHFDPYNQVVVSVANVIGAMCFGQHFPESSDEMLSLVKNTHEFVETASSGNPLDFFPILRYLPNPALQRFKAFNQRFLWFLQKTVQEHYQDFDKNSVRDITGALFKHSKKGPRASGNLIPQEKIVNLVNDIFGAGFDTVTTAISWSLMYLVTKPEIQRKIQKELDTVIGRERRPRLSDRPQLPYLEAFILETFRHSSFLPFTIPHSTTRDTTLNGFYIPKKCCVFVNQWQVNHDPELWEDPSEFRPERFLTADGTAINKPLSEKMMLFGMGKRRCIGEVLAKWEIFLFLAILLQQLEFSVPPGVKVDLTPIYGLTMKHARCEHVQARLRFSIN
As to the kind of experiment: Inhibition of CYP1A2 in human liver microsomes incubated in presence NADPH by LC-MS/MS analysis. For orientation: Microsomes from liver hold many membrane-bound enzymes, among them those of drug oxidation.

The next data set concerns the target Cytochrome P450 2C19 (Homo sapiens, UniProt P33261). As to the kind of experiment: Inhibition of CYP2C19 in human liver microsomes incubated in presence NADPH by LC-MS/MS analysis.
Data set [2] in a line: Apparent permeability across apical to basolateral side in human Caco-2 cells at 10 uM measured after 120 mins by LC-MS/MS analysis. The following applies: for Papp A→B at 2 h, 10 µM: Caco-2. (Caco-2 monolayers are a common model of the intestinal barrier.)
The next data set deals with Cytochrome P450 2C9 (Homo sapiens, UniProt P11712). In words: Inhibition of CYP2C9 in human liver microsomes incubated in presence NADPH by LC-MS/MS analysis.
Data set [3] is described as follows: Microsomal stability in human liver microsomes assessed as intrinsic clearance at 1 uM incubated for 60 mins in presence of NADPH regenerating system by LC-MS/MS analysis. The following applies: read-out: CLH. It counts as ADME, Microsome.
Data set [4] is described as follows: Microsomal stability in rat liver microsomes assessed as intrinsic clearance at 1 uM incubated for 60 mins in presence of NADPH regenerating system by LC-MS/MS analysis. The class given is ADME, Microsome. The following applies: read-out: CLH.
The target of another data set is T2, Cytochrome P450 2B6 (Homo sapiens, UniProt P20813).
T2 sequence (P20813 whole entry): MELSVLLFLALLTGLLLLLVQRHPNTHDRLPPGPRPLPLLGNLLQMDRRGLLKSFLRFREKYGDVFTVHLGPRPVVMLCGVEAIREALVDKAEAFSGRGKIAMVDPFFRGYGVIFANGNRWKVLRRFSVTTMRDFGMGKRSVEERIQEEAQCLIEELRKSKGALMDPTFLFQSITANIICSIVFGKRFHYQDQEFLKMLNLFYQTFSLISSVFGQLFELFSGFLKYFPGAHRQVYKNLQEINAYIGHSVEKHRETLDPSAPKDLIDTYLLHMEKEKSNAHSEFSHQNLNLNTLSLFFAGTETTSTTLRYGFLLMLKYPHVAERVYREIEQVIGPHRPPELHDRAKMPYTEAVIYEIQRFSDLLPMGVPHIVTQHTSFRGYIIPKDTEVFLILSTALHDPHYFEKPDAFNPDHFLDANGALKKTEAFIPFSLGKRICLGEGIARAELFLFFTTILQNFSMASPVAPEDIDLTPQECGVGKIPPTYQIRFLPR
In words: Inhibition of CYP2B6 in human liver microsomes incubated in presence NADPH by LC-MS/MS analysis.

Data set [5] is described as follows: Plasma protein binding in human assessed as unbound fraction at 2 uM incubated for 4 hrs by LC/MS/MS based balanced dialysis method.
The nature of data set [6]: Metabolic stability in human hepatocytes assessed as intrinsic clearance at 1 uM incubated for 90 mins by LC/MS/MS analysis. The class given is ADME, cell-based, Hepatocyte.
Data set [7] is described as follows: Plasma protein binding in rat assessed as unbound fraction at 2 uM incubated for 4 hrs by LC/MS/MS based balanced dialysis method.
The next data set deals with Cytochrome P450 2D6 (Homo sapiens, UniProt P10635). As to the kind of experiment: Inhibition of CYP2D6 in human liver microsomes incubated in presence NADPH by LC-MS/MS analysis.
The next data set has as its target T3, Cytochrome P450 2C8 (Homo sapiens, UniProt P10632).
T3 sequence (P10632 whole entry): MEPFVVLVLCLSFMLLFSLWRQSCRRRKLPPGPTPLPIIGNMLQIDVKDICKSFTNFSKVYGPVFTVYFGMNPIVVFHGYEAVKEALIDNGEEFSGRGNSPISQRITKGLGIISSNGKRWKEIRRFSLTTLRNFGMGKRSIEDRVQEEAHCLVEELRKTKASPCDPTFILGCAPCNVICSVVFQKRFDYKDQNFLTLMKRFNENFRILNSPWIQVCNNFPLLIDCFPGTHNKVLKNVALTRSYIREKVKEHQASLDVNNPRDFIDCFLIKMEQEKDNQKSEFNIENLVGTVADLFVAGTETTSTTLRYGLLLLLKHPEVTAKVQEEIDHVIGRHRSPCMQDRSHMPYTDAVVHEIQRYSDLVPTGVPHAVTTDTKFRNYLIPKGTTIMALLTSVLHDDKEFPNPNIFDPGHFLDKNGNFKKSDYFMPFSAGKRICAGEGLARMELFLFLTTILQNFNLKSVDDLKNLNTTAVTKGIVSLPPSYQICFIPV
As to the kind of experiment: Inhibition of CYP2C8 in human liver microsomes incubated in presence NADPH by LC-MS/MS analysis.

A short description of data set [8]: Apparent permeability across basolateral to apical side in human Caco-2 cells at 10 uM measured after 120 mins by LC-MS/MS analysis.
A short description of data set [9]: Plasma protein binding in mouse assessed as unbound fraction at 2 uM incubated for 4 hrs by LC/MS/MS based balanced dialysis method.
The nature of data set [10]: Microsomal stability in mouse liver microsomes assessed as intrinsic clearance at 1 uM incubated for 60 mins in presence of NADPH regenerating system by LC-MS/MS analysis. It counts as ADME, Microsome. The note with it: read-out: CLH.
The next data set addresses Cytochrome P450 3A4 (Homo sapiens, UniProt P08684). As to the kind of experiment: Inhibition of CYP3A4 in human liver microsomes incubated in presence NADPH by LC-MS/MS analysis.
A short description of data set [11]: Metabolic stability in rat hepatocytes assessed as intrinsic clearance at 1 uM incubated for 90 mins by LC/MS/MS analysis. The class given is ADME, cell-based, Hepatocyte.
Data set [12] can be described thus: Efflux ratio of apparent permeability from basolateral to apical side over apical to basolateral side in human Caco-2 cells at 10 uM incubated for 120 mins by LC-MS/MS analysis.
The species named for data set [13] is Homo sapiens. In words: Selectivity index, ratio of IC50 for inhibition of recombinant human JAK2 to IC50 for inhibition of recombinant human JAK1.
The species entered for data set [14] is Homo sapiens. In words: Selectivity index, ratio of IC50 for inhibition of recombinant human TYK2 to IC50 for inhibition of recombinant human JAK1.
The test system of data set [15] is Mus musculus. As to the kind of experiment: Antiarthritic activity in collagen-induced rheumatoid arthritis DBA/1 mouse model assessed as reduction in incidence rate at 15 mg/kg, po BID administered for 14 days starting from 7 days before immunization to 21 days after immunization and measured post last dose. It counts as functional. More on the design: scale not given: the % may be the effect or the level left. The following applies: time 14 day.

In data set [16] the test system is Mus musculus. As to the kind of experiment: Antiarthritic activity in collagen-induced rheumatoid arthritis DBA/1 mouse model assessed as reduction in clinical score AUC at 15 mg/kg, po BID administered for 14 days starting from 7 days before immunization to 21 days after immunization and measured on day 41 post immunization. It counts as functional, organism-based. The note with it: time 14.0 day.

Cytochrome P450 2C19, sequence (P33261 whole entry): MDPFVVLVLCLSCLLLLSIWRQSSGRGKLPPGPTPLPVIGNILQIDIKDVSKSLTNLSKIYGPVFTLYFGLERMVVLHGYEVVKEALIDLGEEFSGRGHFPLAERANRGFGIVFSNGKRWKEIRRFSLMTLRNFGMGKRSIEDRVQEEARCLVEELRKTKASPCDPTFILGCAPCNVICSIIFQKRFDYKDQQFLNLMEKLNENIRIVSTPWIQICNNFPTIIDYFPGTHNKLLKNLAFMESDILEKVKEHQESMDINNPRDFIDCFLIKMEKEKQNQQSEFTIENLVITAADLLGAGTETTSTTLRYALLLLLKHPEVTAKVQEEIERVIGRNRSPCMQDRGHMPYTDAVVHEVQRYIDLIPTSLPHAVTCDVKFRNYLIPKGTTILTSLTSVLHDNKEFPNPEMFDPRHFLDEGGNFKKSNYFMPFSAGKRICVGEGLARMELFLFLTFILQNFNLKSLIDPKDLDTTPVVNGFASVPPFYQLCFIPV
Cytochrome P450 2D6, sequence (P10635 whole entry): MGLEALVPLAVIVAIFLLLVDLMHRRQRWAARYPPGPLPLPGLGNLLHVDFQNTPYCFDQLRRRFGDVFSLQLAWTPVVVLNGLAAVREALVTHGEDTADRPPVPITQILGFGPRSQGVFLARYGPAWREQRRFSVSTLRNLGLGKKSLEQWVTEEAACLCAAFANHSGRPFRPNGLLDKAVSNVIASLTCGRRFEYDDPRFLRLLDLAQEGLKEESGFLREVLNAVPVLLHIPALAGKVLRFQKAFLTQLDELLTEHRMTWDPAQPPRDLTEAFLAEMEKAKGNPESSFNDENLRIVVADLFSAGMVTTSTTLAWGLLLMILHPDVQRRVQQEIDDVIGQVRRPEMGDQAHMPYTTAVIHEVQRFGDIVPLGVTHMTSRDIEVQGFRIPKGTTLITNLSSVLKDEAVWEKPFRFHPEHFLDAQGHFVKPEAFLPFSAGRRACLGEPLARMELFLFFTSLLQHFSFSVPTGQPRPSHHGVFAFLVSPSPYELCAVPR
Cytochrome P450 2C9, sequence (P11712 whole entry): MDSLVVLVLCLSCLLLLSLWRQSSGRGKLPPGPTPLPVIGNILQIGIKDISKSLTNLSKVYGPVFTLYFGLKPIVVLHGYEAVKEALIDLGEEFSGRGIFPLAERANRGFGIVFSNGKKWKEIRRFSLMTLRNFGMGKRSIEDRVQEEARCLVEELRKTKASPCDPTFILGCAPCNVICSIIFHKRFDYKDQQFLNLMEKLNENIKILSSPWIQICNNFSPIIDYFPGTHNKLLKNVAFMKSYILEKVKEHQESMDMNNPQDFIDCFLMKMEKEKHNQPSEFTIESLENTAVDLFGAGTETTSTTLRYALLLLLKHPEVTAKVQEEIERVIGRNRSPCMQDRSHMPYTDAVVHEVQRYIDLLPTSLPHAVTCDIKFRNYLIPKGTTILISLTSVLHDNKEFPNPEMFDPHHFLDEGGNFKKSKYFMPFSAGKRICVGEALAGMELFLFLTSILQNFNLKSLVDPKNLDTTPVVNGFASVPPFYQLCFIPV
Cytochrome P450 3A4, sequence (P08684 whole entry): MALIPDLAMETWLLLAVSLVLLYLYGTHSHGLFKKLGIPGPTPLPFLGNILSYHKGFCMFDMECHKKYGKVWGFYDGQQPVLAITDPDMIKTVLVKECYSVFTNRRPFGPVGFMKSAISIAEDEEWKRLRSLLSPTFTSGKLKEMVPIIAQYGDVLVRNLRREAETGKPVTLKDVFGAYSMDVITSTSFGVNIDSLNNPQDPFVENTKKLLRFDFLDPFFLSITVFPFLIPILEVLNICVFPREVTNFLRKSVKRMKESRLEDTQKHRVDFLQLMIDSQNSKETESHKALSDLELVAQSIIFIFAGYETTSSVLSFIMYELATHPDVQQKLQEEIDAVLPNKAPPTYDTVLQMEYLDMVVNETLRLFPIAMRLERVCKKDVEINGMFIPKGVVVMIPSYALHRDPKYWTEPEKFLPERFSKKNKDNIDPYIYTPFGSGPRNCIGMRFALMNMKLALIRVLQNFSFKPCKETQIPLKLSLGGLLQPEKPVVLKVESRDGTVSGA

Broadly, the IC50 is the point on the concentration scale where inhibition reaches its midpoint. As usually defined, the Papp A→B is how fast a substance crosses the layer from the apical side. The term fraction unbound denotes free concentration divided by total concentration. The Papp B→A is the apparent permeability from the basolateral to the apical side of a cell layer. Take `N#CCC(=O)N1CC2(CCC(c3cccc4nc(NC(=O)C5CC5)nn34)CC2)C1`: the figures for the CLH in data set [1], in [6] and in [11] were less than 6.6 µL/min/mg, less than 6.4 µL/min/mg and less than 6.4 µL/min/mg, respectively. The IC50 against Cytochrome P450 1A2, on Cytochrome P450 2C19, against Cytochrome P450 2C9, against Cytochrome P450 2B6, against Cytochrome P450 2D6 and against Cytochrome P450 2C8 was greater than 100 µM in each case. On Cytochrome P450 3A4, this molecule returned a 50% inhibitory concentration (IC50) greater than 100 µM. Also, the apparent permeability from apical to basolateral (Papp A→B) at 2 h, 10 µM in data set [2] turned out to be 1 nm/s. For the same molecule, the microsomal CLint at 1 µM in [3], in [4] and in data set [10] was less than 9.6 µL/min/mg each time. Further, the fraction unbound at 4 h, 2 µM stood at 0.515 in data set [5], 0.544 in [7] and 0.479 in [9]. Moreover, the basolateral-to-apical permeability (Papp B→A) at 2 h, 10 µM in data set [8] is 204 nm/s.
For orientation: efflux ratio means the permeability from basolateral to apical divided by that in the opposite direction, in the common usage. `O=C(Nc1nc2cccc(C3CCC(NC(=O)C4(F)CC4)CC3)n2n1)C1CC1` (stereo not drawn): the CLH in [1] is 15.3 µL/min/mg; in data set [6] it was less than 6.4 µL/min/mg; in [11], less than 6.4 µL/min/mg. For the same molecule, the IC50 against Cytochrome P450 1A2, at Cytochrome P450 2C19, on Cytochrome P450 2C9, at Cytochrome P450 2B6, at Cytochrome P450 2D6 and against Cytochrome P450 2C8 was greater than 100 µM throughout. This molecule returned an IC50 at Cytochrome P450 3A4 greater than 100 µM. The efflux ratio at 2 h, 10 µM in [12] stood at 6.57. Further, the apical-to-basolateral permeability (Papp A→B) at 2 h, 10 µM in data set [2] is 43.6 nm/s. The microsomal CLint at 1 µM was less than 9.6 µL/min/mg in data set [3], less than 9.6 µL/min/mg in [4] and 10.6 µL/min/mg in data set [10]. The results for the fraction unbound at 4 h, 2 µM in data set [5], in [7] and in [9] were 0.306, 0.196 and 0.28, respectively. In data set [8], the apparent permeability from basolateral to apical (Papp B→A) at 2 h, 10 µM came out at 286 nm/s. Further, the Ratio IC50 in the data set listed under Homo sapiens [13] amounted to 11.6; in the data set filed under Homo sapiens [14], 4.1.
Take `O=C(Nc1nc2cccc(-c3ccc(CN4CCS(=O)(=O)CC4)cc3)n2n1)C1CC1` [FILGOTINIB]: the figures for the CLH in data set [1], in data set [6] and in data set [11] were 22.3 µL/min/mg, less than 6.4 µL/min/mg and less than 6.4 µL/min/mg, respectively. The half-maximal inhibitory concentration (IC50) at Cytochrome P450 1A2 was 65.6 µM; against Cytochrome P450 2C19, 88.2 µM; at Cytochrome P450 2C9, greater than 100 µM; on Cytochrome P450 2B6, greater than 100 µM; on Cytochrome P450 2D6 it was greater than 100 µM; at Cytochrome P450 2C8, greater than 100 µM. Moreover, the Papp in data set [2] (caco-2, 2 h, 10 µM) is listed as 0.28 10^-6 cm/s. Besides, the microsomal CLint at 1 µM in data set [3], in data set [4] and in data set [10] was less than 9.6 µL/min/mg throughout. For the same molecule, the Activity in the data set on Mus musculus [15] came out at 100%. For the same molecule, the fraction unbound at 4 h, 2 µM in data set [5] was 0.518; in data set [7] it was 0.399; in [9] it was 0.316. The Papp B→A at 2 h, 10 µM in data set [8] amounted to 245 nm/s. Besides, the outcome in the data set on Mus musculus [16] was Active.
